In patent US20240327430A1 (Breakpoint Therapeutics GmbH, priority 2023, published 2024):

Target: truncated Polθ protein (Polθ-Hel containing the helicase domain (67-894)) (Homo sapiens (Human), UniProt O75417)
Assay: Polθ ATPase assay (Biological Assay 1, ADP-Glo luminescence)
Type: biochemical
Conditions: Polθ-Hel 0.5 nM, DNA substrate 500 nM, ATP 60 μM, 23° C.; read-out: Pole ATPase assay IC50
Experimental: The Polθ ATPase assay was used to evaluate inhibitors of Polθ ATPase activity, in vitro. Experiments were performed using a truncated Polθ protein (Polθ-Hel containing the helicase domain (67-894), ATP and a DNA single strand Oligo (5′-CTGTCCTGCATGATG-3′) in the Polθ assay buffer (20 mM Tis-HCl (pH 8.8), MgCl2 5 mM, tween20 0.01%, NP40 0.01%, BSA 0.01%, DTT 1 mM). 2 μL of assay buffer containing Pole-Hel protein (0.5 nM) and DNA substrate (500 nM) was transferred into assay ready plates, containing 0.04 μL of compounds diluted in DMSO. After a 30 minutes incubation at 23° C. in the dark, the reaction was triggered by adding 2 μL of ATP (60 μM), in assay buffer. After 60 minutes at 23° C., 4 μl of ADP-Glo™ Reagent (Glo 1) was added followed by 40 minutes of incubation, then 8 μl of ADP-Glom kinase Detection Reagent (Glo 2) followed by 60 minutes of incubation at 23° C. Luminescence was then measured using Tecan F200 infinite plate reader. Raw data were analysed using GeneData to generate IC50 values.
The Polθ ATPase assay described in Biological Assay 1 above was used to evaluate inhibitors of Polθ ATPase activity for the compounds described in the Experimental Part B above, in vitro.

Sequence of truncated Polθ protein (Polθ-Hel containing the helicase domain (67-894)) (O75417 67-894): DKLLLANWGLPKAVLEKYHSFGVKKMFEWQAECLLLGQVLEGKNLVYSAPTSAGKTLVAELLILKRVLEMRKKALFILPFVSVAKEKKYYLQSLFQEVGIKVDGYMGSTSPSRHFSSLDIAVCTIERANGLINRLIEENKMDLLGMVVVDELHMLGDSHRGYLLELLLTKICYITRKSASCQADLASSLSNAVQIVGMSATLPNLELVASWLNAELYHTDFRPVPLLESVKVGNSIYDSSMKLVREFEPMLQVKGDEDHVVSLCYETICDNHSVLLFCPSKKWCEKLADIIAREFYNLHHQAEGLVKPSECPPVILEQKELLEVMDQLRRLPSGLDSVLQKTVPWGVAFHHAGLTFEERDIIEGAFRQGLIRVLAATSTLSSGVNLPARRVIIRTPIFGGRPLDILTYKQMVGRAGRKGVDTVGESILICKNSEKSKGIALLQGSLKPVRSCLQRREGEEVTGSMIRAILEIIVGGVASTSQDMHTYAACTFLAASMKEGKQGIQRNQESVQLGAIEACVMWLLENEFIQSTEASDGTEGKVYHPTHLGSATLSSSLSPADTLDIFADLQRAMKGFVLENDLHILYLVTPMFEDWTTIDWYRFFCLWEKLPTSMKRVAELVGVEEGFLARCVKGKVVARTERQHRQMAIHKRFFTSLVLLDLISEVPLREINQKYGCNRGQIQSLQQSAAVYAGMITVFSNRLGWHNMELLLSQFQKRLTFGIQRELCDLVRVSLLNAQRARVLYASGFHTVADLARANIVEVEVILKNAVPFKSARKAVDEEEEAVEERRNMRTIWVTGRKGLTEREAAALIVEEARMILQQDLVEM

SMILES: COc1cnc(Cl)cc1-c1cc(C)ncc1C(=O)Nc1nc2cnc(NC3CCC(O)CC3)nc2s1 (stereo not drawn) [Example 48, 2′-chloro-N-{5-[(4-hydroxycyclohexyl)amino]-[1,3]thiazolo[5,4-d]pyrimidin-2-yl}-5′-methoxy-6-methyl-[4,4′-bipyridine]-3-carboxamide]
- IC50: < 100 nM

SMILES: COc1cnc(Cl)cc1-c1cc(C)ncc1C(=O)Nc1nc2cnc(N3CCOC[C@H]3C)nc2s1 [Example 50, 2′-chloro-5′-methoxy-6-methyl-N-{5-[(3R)-3-methylmorpholin-4-yl]-[1,3]thiazolo[5,4-d]pyrimidin-2-yl}-[4,4′-bipyridine]-3-carboxamide]
- IC50: < 100 nM

SMILES: COc1cnc(Cl)cc1-c1cc(C)ncc1C(=O)Nc1nc2cnc(N3CCOC[C@@H]3C)nc2s1 [Example 51, 2′-chloro-5′-methoxy-6-methyl-N-{5-[(3S)-3-methylmorpholin-4-yl]-[1,3]thiazolo[5,4-d]pyrimidin-2-yl}-[4,4′-bipyridine]-3-carboxamide]
- IC50: < 100 nM

SMILES: COc1cnc(Cl)cc1-c1cc(C)ncc1C(=O)Nc1nc2cnc(NC(C)C)nc2s1 [Example 52, 2′-chloro-5′-methoxy-6-methyl-N-{5-[(propan-2-yl)amino]-[1,3]thiazolo[5,4-d]pyrimidin-2-yl}-[4,4′-bipyridine]-3-carboxamide]
- IC50: < 100 nM

SMILES: COc1cnc(Cl)cc1-c1cc(C)ncc1C(=O)Nc1nc2cnc(N3CCC4(CC3)COC4)nc2s1 [Example 53, 2′-chloro-5′-methoxy-6-methyl-N-(5-{2-oxa-7-azaspiro[3.5]nonan-7-yl}-[1,3]thiazolo[5,4-d]pyrimidin-2-yl)-[4,4′-bipyridine]-3-carboxamide]
- IC50: < 100 nM

SMILES: COc1cnc(Cl)cc1-c1cc(C)ncc1C(=O)Nc1nc2cnc(N3CC4CCC(C3)N4)nc2s1 [Example 54, 2′-chloro-N-(5-{3,8-diazabicyclo[3.2.1]octan-3-yl}-[1,3]thiazolo[5,4-d]pyrimidin-2-yl)-5′-methoxy-6-methyl-[4,4′-bipyridine]-3-carboxamide]
- IC50: < 100 nM

SMILES: COc1cnc(Cl)cc1-c1cc(C)ncc1C(=O)Nc1nc2cnc(N3CCNCC3)nc2s1 [Example 55, 2′-chloro-5′-methoxy-6-methyl-N-[5-(piperazin-1-yl)-[1,3]thiazolo[5,4-d]pyrimidin-2-yl]-[4,4′-bipyridine]-3-carboxamide]
- IC50: < 100 nM

SMILES: COc1cnc(Cl)cc1-c1cc(C)ncc1C(=O)Nc1nc2ccc(N3CCCC3=O)cc2s1 [Example 56, 2′-chloro-5′-methoxy-6-methyl-N-[6-(2-oxopyrrolidin-1-yl)-1,3-benzothiazol-2-yl]-[4,4′-bipyridine]-3-carboxamide]
- IC50: < 100 nM

SMILES: COc1cnc(Cl)cc1-c1cc(C)ncc1C(=O)Nc1nc2ccc(N3CCOCC3=O)cc2s1 [Example 57, 2′-chloro-5′-methoxy-6-methyl-N-[6-(3-oxomorpholin-4-yl)-1,3-benzothiazol-2-yl]-[4,4′-bipyridine]-3-carboxamide]
- IC50: < 100 nM

SMILES: COc1cnc(Cl)cc1-c1cc(C)ncc1C(=O)Nc1nc2ccc(N3CCN(C)C3=O)cc2s1 [Example 58, 2′-chloro-5′-methoxy-6-methyl-N-[6-(3-methyl-2-oxoimidazolidin-1-yl)-1,3-benzothiazol-2-yl]-[4,4′-bipyridine]-3-carboxamide]
- IC50: < 100 nM

SMILES: COc1cnc(Cl)cc1-c1cc(C)ncc1C(=O)Nc1nc2ccc(N3CCOC3=O)cc2s1 [Example 59, 2′-chloro-5′-methoxy-6-methyl-N-[6-(2-oxo-1,3-oxazolidin-3-yl)-1,3-benzothiazol-2-yl]-[4,4′-bipyridine]-3-carboxamide]
- IC50: < 100 nM

SMILES: COc1cnc(Cl)cc1-c1cc(C)ncc1C(=O)Nc1nc2ccc(N3CCNC3=O)cc2s1 [Example 60, 2′-chloro-5′-methoxy-6-methyl-N-[6-(2-oxoimidazolidin-1-yl)-1,3-benzothiazol-2-yl]-[4,4′-bipyridine]-3-carboxamide]
- IC50: < 100 nM

SMILES: COc1cnc(Cl)cc1-c1cc(C)ncc1C(=O)Nc1nc2cnc(N3CCCCC3=O)cc2s1 [Example 61, 2′-chloro-5′-methoxy-6-methyl-N-[6-(2-oxopiperidin-1-yl)-[1,3]thiazolo[4,5-c]pyridin-2-yl]-[4,4′-bipyridine]-3-carboxamide]
- IC50: < 100 nM

SMILES: COc1cnc(Cl)cc1-c1cc(C)ncc1C(=O)Nc1nc2cnccc2s1 [Example 62, 2′-chloro-5′-methoxy-6-methyl-N-{[1,3]thiazolo[4,5-c]pyridin-2-yl}-[4,4′-bipyridine]-3-carboxamide]
- IC50: < 100 nM

SMILES: COc1cnc(Cl)cc1-c1cc(C)ncc1C(=O)Nc1nc2cc(Cl)ncc2s1 [Example 63, 2′-chloro-N-{6-chloro-[1,3]thiazolo[5,4-c]pyridin-2-yl}-5′-methoxy-6-methyl-[4,4′-bipyridine]-3-carboxamide]
- IC50: < 100 nM

SMILES: COc1cnc(Cl)cc1-c1cc(C)ncc1C(=O)Nc1nc2cnc(Cl)cc2s1 [Example 64, 2′-chloro-N-{6-chloro-[1,3]thiazolo[4,5-c]pyridin-2-yl}-5′-methoxy-6-methyl-[4,4′-bipyridine]-3-carboxamide]
- IC50: < 100 nM

SMILES: COc1cnc(Cl)cc1-c1cc(C)ncc1C(=O)Nc1nc2cnc(N3CCOCC3)cc2s1 [Example 65, 2′-chloro-5′-methoxy-6-methyl-N-[6-(morpholin-4-yl)-[1,3]thiazolo[4,5-c]pyridin-2-yl]-[4,4′-bipyridine]-3-carboxamide]
- IC50: < 100 nM

SMILES: COc1cnc(Cl)cc1-c1cc(C)ncc1C(=O)Nc1nc2ccc(S(=O)(=O)N(C)C)cc2s1 [Example 66, 2′-chloro-N-[6-(dimethylsulfamoyl)-1,3-benzothiazol-2-yl]-5′-methoxy-6-methyl-[4,4′-bipyridine]-3-carboxamide]
- IC50: < 100 nM

SMILES: COc1cnc(Cl)cc1-c1cc(C)ncc1C(=O)Nc1nc2ncc(N3CCOCC3)cc2s1 [Example 67, 2′-chloro-5′-methoxy-6-methyl-N-[6-(morpholin-4-yl)-[1,3]thiazolo[4,5-b]pyridin-2-yl]-[4,4′-bipyridine]-3-carboxamide]
- IC50: < 100 nM

SMILES: COc1cnc(Cl)cc1-c1cc(C)ncc1C(=O)Nc1nc2ccccc2s1 [Example 69, N-(1,3-benzothiazol-2-yl)-2′-chloro-5′-methoxy-6-methyl-[4,4′-bipyridine]-3-carboxamide]
- IC50: < 100 nM

SMILES: COc1cnc(Cl)cc1-c1cc(C)ncc1C(=O)Nc1nc2ncc(N3CCCCC3=O)cc2s1 [Example 70]
- IC50: < 100 nM

SMILES: COc1cnc(Cl)cc1-c1cc(C)ncc1C(=O)Nc1nc2ncc(N3CCC(O)CC3)cc2s1 [Example 71, 2′-chloro-N-[6-(4-hydroxypiperidin-1-yl)-[1,3]thiazolo[4,5-b]pyridin-2-yl]-5′-methoxy-6-methyl-[4,4′-bipyridine]-3-carboxamide]
- IC50: < 100 nM

SMILES: COc1cnc(Cl)cc1-c1cc(C)ncc1C(=O)Nc1nc2ccc(N3CCOCC3)nc2s1 [Example 72, 2′-chloro-5′-methoxy-6-methyl-N-[5-(morpholin-4-yl)-[1,3]thiazolo[5,4-b]pyridin-2-yl]-[4,4′-bipyridine]-3-carboxamide]
- IC50: < 100 nM

SMILES: COc1cnc(Cl)cc1-c1cc(C)ncc1C(=O)Nc1nc2ccc(N3CCCCC3=O)nc2s1 [Example 73, 2′-chloro-5′-methoxy-6-methyl-N-[5-(2-oxopiperidin-1-yl)-[1,3]thiazolo[5,4-b]pyridin-2-yl]-[4,4′-bipyridine]-3-carboxamide]
- IC50: < 100 nM

SMILES: COc1cnc(Cl)cc1-c1cc(C)ncc1C(=O)Nc1nc2ccc(N3CCC(O)CC3)nc2s1 [Example 74, 2′-chloro-N-[5-(4-hydroxypiperidin-1-yl)-[1,3]thiazolo[5,4-b]pyridin-2-yl]-5′-methoxy-6-methyl-[4,4′-bipyridine]-3-carboxamide]
- IC50: < 100 nM

SMILES: COc1ncc2nc(NC(=O)c3cnc(C)cc3-c3cc(Cl)ncc3OC)sc2n1 [Example 75, 2′-chloro-5′-methoxy-N-{5-methoxy-[1,3]thiazolo[5,4-d]pyrimidin-2-yl}-6-methyl-[4,4′-bipyridine]-3-carboxamide]
- IC50: < 100 nM

SMILES: COc1cnc(Cl)cc1-c1cc(C)ncc1C(=O)Nc1nc2cnc(N3CCC4(COC4)C3)nc2s1 [Example 76, 2′-chloro-5′-methoxy-6-methyl-N-(5-{2-oxa-6-azaspiro[3.4]octan-6-yl}-[1,3]thiazolo[5,4-d]pyrimidin-2-yl)-[4,4′-bipyridine]-3-carboxamide]
- IC50: < 100 nM

SMILES: COc1cnc(Cl)cc1-c1cc(C)ncc1C(=O)Nc1nc2cnc(NCC(C)(C)O)nc2s1 [Example 77, 2′-chloro-N-{5-[(2-hydroxy-2-methylpropyl)amino]-[1,3]thiazolo[5,4-d]pyrimidin-2-yl}-5′-methoxy-6-methyl-[4,4′-bipyridine]-3-carboxamide]
- IC50: < 100 nM

SMILES: COc1cnc(Cl)cc1-c1cc(C)ncc1C(=O)Nc1nc2cnc(NCC(C)C)nc2s1 [Example 78, 2′-chloro-5′-methoxy-6-methyl-N-{5-[(2-methylpropyl)amino]-[1,3]thiazolo[5,4-d]pyrimidin-2-yl}-[4,4′-bipyridine]-3-carboxamide]
- IC50: < 100 nM

SMILES: COc1cnc(Cl)cc1-c1cc(C)ncc1C(=O)Nc1nc2cnc(NC3CCC3)nc2s1 [Example 79, 2′-chloro-N-[5-(cyclobutylamino)-[1,3]thiazolo[5,4-d]pyrimidin-2-yl]-5′-methoxy-6-methyl-[4,4′-bipyridine]-3-carboxamide]
- IC50: < 100 nM
